Data from EP0531640B1, “Antibiotic LL-E19020 Gamma” (F. HOFFMANN-LA ROCHE AG, priority 1991, dated 1993).
Converted amounts (≈) assume the structure as drawn.

Columns and labels:
[1] = system: Staphylococcus haemolyticus AVAH 88-3; assay: MIC by agar dilution; format: cell-based; conditions: AVAH883, Mueller-Hinton agar, 5% sheep blood, 18 hours, read-out: MINIMAL INHIBITORY CONCENTRATION
Method: (§1) The in vitro antibacterial activity of LL-E19020 Gamma is determined against a spectrum of gram positive and gram negative bacteria by a standard agar dilution method. Mueller-Hinton agar containing 5% sheep blood and two-fold decreasing concentrations of LL-E19020 Gamma is poured into petri dishes. The agar surfaces are inoculated with 1 to 5X10^4 colony forming units of bacteria by means of the Steers replicating device. The lowest concentration of antibiotic that inhibits growth of a bacterial strain after 18 hours incubation is recorded as the minimal inhibitory concentration for that strain.
(§2) • 1. Serial two-flow dilutions of drug are prepared in Mueller-Hinton broth in a range of 2560 µg/ml-0.15 µg/ml plus a solvent control. • 2. Two milliliters of drug dilution (10X) are added to sterile screw cap bottles to which 18 ml of Mueller-Hinton agar containing 5.6% defibrinated sheep blood is added. Final drug concentration ranges 256 µg/ml-0.015 µg/ml in agar containing 5% sheep blood. • 3. A few isolated colonies of each test organism are inoculated into 5 ml trypticase soy broth or brain heart infusion broth. The cultures are shaken at 35 °C. for 5 hours. • 4. Each culture is diluted 1:50 (10^-1.7) in Mueller-Hinton broth and applied to agar plates using a Steers replicator. Control plates should be seeded last to ensure that viable organisms are present throughout the procedure. Inoculated agar plates are allowed to stand undisturbed until the inoculum spots are completely absorbed. • 5. The plates are inverted and incubated at 35 °C. for 18 hours with CO2. • 6. The minimum inhibitory concentration (MIC) is taken as the lowest concentration of antimicrobial agent at which complete inhibition of antimicrobial agent at which complete inhibition occurs. A very fine, barely visible haze or a single colony is disregarded.

[2] = system: Staphylococcus aureus ATCC 25923; assay: MIC by agar dilution; format: cell-based; conditions: ATCC25923, Mueller-Hinton agar, 5% sheep blood, 18 hours, read-out: MINIMAL INHIBITORY CONCENTRATION
Method: as §1, §2

[3] = system: Staphylococcus aureus SMITH (MP); assay: MIC by agar dilution; format: cell-based; conditions: Mueller-Hinton agar, 5% sheep blood, 18 hours, read-out: MINIMAL INHIBITORY CONCENTRATION
Method: as §1, §2

[4] = system: Pseudomonas aeruginosa 12-4-4 (MP); assay: MIC by agar dilution; format: cell-based; conditions: Mueller-Hinton agar, 5% sheep blood, 18 hours, read-out: MINIMAL INHIBITORY CONCENTRATION
Method: as §1, §2

[5] = system: Enterococcus spp. CMC 83-120; assay: MIC by agar dilution; format: cell-based; conditions: Mueller-Hinton agar, 5% sheep blood, 18 hours, read-out: MINIMAL INHIBITORY CONCENTRATION
Method: as §1, §2

[6] = system: Streptococcus pneumoniae SV-1 (MP); assay: MIC by agar dilution; format: cell-based; conditions: Mueller-Hinton agar, 5% sheep blood, 18 hours, read-out: MINIMAL INHIBITORY CONCENTRATION
Method: as §1, §2

[7] = system: Staphylococcus haemolyticus AVAH 88-1; assay: MIC by agar dilution; format: cell-based; conditions: AVAH881, Mueller-Hinton agar, 5% sheep blood, 18 hours, read-out: MINIMAL INHIBITORY CONCENTRATION
Method: as §1, §2

[8] = system: Escherichia coli ATCC 25922; assay: MIC by agar dilution; format: cell-based; conditions: ATCC25922, Mueller-Hinton agar, 5% sheep blood, 18 hours, read-out: MINIMAL INHIBITORY CONCENTRATION
Method: as §1, §2

[9] = system: Streptococcus pneumoniae CHBM 88-75; assay: MIC by agar dilution; format: cell-based; conditions: CHBM8875, Mueller-Hinton agar, 5% sheep blood, 18 hours, read-out: MINIMAL INHIBITORY CONCENTRATION
Method: as §1, §2

[10] = system: Escherichia coli ATCC 35218; assay: MIC by agar dilution; format: cell-based; conditions: ATCC35218, 18 h, read-out: MINIMAL INHIBITORY CONCENTRATION
Method: as §1, §2

[11] = system: Staphylococcus aureus IVES 160; assay: MIC by agar dilution; format: cell-based; conditions: IVES160, Mueller-Hinton agar, 5% sheep blood, 18 hours, read-out: MINIMAL INHIBITORY CONCENTRATION
Method: as §1, §2

[12] = system: Staphylococcus aureus VGH 84-47; assay: MIC by agar dilution; format: cell-based; conditions: VGH8447, 18 h, read-out: MINIMAL INHIBITORY CONCENTRATION
Method: as §1, §2

[13] = system: Streptococcus pyogenes AMCH 88-84; assay: MIC by agar dilution; format: cell-based; conditions: AMCH8884, Mueller-Hinton agar, 5% sheep blood, 18 hours, read-out: MINIMAL INHIBITORY CONCENTRATION
Method: as §1, §2

[14] = system: Staphylococcus aureus CMC 83-131; assay: MIC by agar dilution; format: cell-based; conditions: CMC83131, Mueller-Hinton agar, 5% sheep blood, 18 hours, read-out: MINIMAL INHIBITORY CONCENTRATION
Method: as §1, §2

Bacillus cereus DAVIES = assay: MIC by agar dilution; format: cell-based; conditions: Mueller-Hinton agar, 5% sheep blood, 18 hours, read-out: MINIMAL INHIBITORY CONCENTRATION
Method: as §1, §2

[15] = system: Enterococcus spp. VGH 84-69; assay: MIC by agar dilution; format: cell-based; conditions: Mueller-Hinton agar, 5% sheep blood, 18 hours, read-out: MINIMAL INHIBITORY CONCENTRATION
Method: as §1, §2

[16] = system: Staphylococcus aureus ATCC 29213; assay: MIC by agar dilution; format: cell-based; conditions: ATCC29213, Mueller-Hinton agar, 5% sheep blood, 18 hours, read-out: MINIMAL INHIBITORY CONCENTRATION
Method: as §1, §2

[17] = system: Enterococcus spp. CHBM 88-60; assay: MIC by agar dilution; format: cell-based; conditions: Mueller-Hinton agar, 5% sheep blood, 18 hours, read-out: MINIMAL INHIBITORY CONCENTRATION
Method: as §1, §2

[18] = system: Enterococcus spp. UCI 85-30; assay: MIC by agar dilution; format: cell-based; conditions: Mueller-Hinton agar, 5% sheep blood, 18 hours, read-out: MINIMAL INHIBITORY CONCENTRATION
Method: as §1, §2

[19] = system: Staphylococcus aureus ROSE (MP); assay: MIC by agar dilution; format: cell-based; conditions: Mueller-Hinton agar, 5% sheep blood, 18 hours, read-out: MINIMAL INHIBITORY CONCENTRATION
Method: as §1, §2

[20] = system: Enterococcus spp. ARUM 87-41; assay: MIC by agar dilution; format: cell-based; conditions: Mueller-Hinton agar, 5% sheep blood, 18 hours, read-out: MINIMAL INHIBITORY CONCENTRATION
Method: as §1, §2

[21] = system: Streptococcus pyogenes AMCH 88-86; assay: MIC by agar dilution; format: cell-based; conditions: AMCH8886, Mueller-Hinton agar, 5% sheep blood, 18 hours, read-out: MINIMAL INHIBITORY CONCENTRATION
Method: as §1, §2

[22] = system: Staphylococcus aureus IVES 396; assay: MIC by agar dilution; format: cell-based; conditions: IVES396, Mueller-Hinton agar, 5% sheep blood, 18 hours, read-out: MINIMAL INHIBITORY CONCENTRATION
Method: as §1, §2

[23] = system: Enterococcus spp. WRVA 88-33; assay: MIC by agar dilution; format: cell-based; conditions: Mueller-Hinton agar, 5% sheep blood, 18 hours, read-out: MINIMAL INHIBITORY CONCENTRATION
Method: as §1, §2

[24] = system: Streptococcus pneumoniae TEX 85-2; assay: MIC by agar dilution; format: cell-based; conditions: TEX852, Mueller-Hinton agar, 5% sheep blood, 18 hours, read-out: MINIMAL INHIBITORY CONCENTRATION
Method: as §1, §2

[25] = system: Klebsiella pneumoniae NEMC 87-271; assay: MIC by agar dilution; format: cell-based; conditions: NEMC87271, Mueller-Hinton agar, 5% sheep blood, 18 hours, read-out: MINIMAL INHIBITORY CONCENTRATION
Method: as §1, §2

[26] = system: Staphylococcus aureus NEMC 87-69; assay: MIC by agar dilution; format: cell-based; conditions: NEMC8769, Mueller-Hinton agar, 5% sheep blood, 18 hours, read-out: MINIMAL INHIBITORY CONCENTRATION
Method: as §1, §2

[27] = system: Streptococcus pyogenes C203 (MP); assay: MIC by agar dilution; format: cell-based; conditions: Mueller-Hinton agar, 5% sheep blood, 18 hours, read-out: MINIMAL INHIBITORY CONCENTRATION
Method: as §1, §2

[28] = system: Staphylococcus epidermidis IVES 455; assay: MIC by agar dilution; format: cell-based; conditions: IVES455, Mueller-Hinton agar, 5% sheep blood, 18 hours, read-out: MINIMAL INHIBITORY CONCENTRATION
Method: as §1, §2

gram negative bacteria = assay: MIC by agar dilution, summary for gram-negative bacteria; format: cell-based; conditions: 18 h; text summary: no gram-negative activity
Method: as §1
as §2, with “Inoculated agar plates are allowed to stand undisturbed until the inoculum spots are completely absorbed. • 5. The plates are inverted and incubated at 35 °C. for 18 hours with CO2. • 6. The minimum inhibitory concentration (MIC) is taken as the lowest concentration of antimicrobial agent at which complete inhibition of antimicrobial agent at which complete inhibition occurs. A very fine, barely visible haze or a single colony is disregarded.” left out

[29] = In vivo toxicity in uninfected mice; conditions: dosed subcutaneously at the same levels used in the protection study (0.5-64 mg/kg)
Method: The in vivo antibacterial activity of antibiotic LL-E19020 Gamma is established by infecting female CD-1 mice from Charles River Laboratories, weighing 20±2 g each, intraperitoneally with either 2.0 X 10^2 CFU/0.5 ml Streptococcus pyogenes C203 suspended in broth or 2.8 X 10^6 CFU/0.5 ml Straphylococcus aureus Smith suspended in 5% hog gastric mucin. The mice were treated subcutaneously, 30 minutes after infection with the indicated dose of the test compound in 0.5 ml of 0.2% aqueous agar. Toxicity studies were performed administering the same treatment to uninfected mice.

## C/C=C\C=C\C1OC(O)(C(COC2CC(OC)C(OC3CC(OC)C(OC4CC(OC)C(O)C(C)O4)C(C)O3)C(C)O2)C(=O)NC/C=C/C=C(\C)C(OC)C(C)C2CC(O)C(/C=C/C=C/C=C/C(=O)O)O2)C(OC(=O)Cc2ccc(O)cc2)C(O)C1(C)C (stereo not shown) [LL-E19020 Gamma]
[1]
  MIC: 16 µg/mL (≈ 12.9 µM)
[2]
  MIC: > 128 µg/mL
[3]
  MIC: 128 µg/mL (≈ 103 µM)
[4]
  MIC: > 128 µg/mL
[5]
  MIC: 16 µg/mL (≈ 12.9 µM)
[6]
  MIC: 0.12 µg/mL (≈ 0.0966 µM)
[7]
  MIC: 64 µg/mL (≈ 51.5 µM)
[8]
  MIC: > 128 µg/mL
[9]
  MIC: 16 µg/mL (≈ 12.9 µM)
[10]
  MIC: > 128 µg/mL
[11]
  MIC: 32 µg/mL (≈ 25.8 µM)
[12]
  MIC: 64 µg/mL (≈ 51.5 µM)
[13]
  MIC: 0.12 µg/mL (≈ 0.0966 µM)
[14]
  MIC: 64 µg/mL (≈ 51.5 µM)
Bacillus cereus DAVIES
  MIC: 32 µg/mL (≈ 25.8 µM)
[15]
  MIC: 16 µg/mL (≈ 12.9 µM)
[16]
  MIC: 128 µg/mL (≈ 103 µM)
[17]
  MIC: 16 µg/mL (≈ 12.9 µM)
[18]
  MIC: 16 µg/mL (≈ 12.9 µM)
[19]
  MIC: 32 µg/mL (≈ 25.8 µM)
[20]
  MIC: 8 µg/mL (≈ 6.44 µM)
[21]
  MIC: 0.5 µg/mL (≈ 0.402 µM)
[22]
  MIC: 64 µg/mL (≈ 51.5 µM)
[23]
  MIC: 16 µg/mL (≈ 12.9 µM)
[24]
  MIC: 0.5 µg/mL (≈ 0.402 µM)
[25]
  MIC: > 128 µg/mL
[26]
  MIC: 32 µg/mL (≈ 25.8 µM)
[27]
  MIC: 0.12 µg/mL (≈ 0.0966 µM)
[28]
  MIC: 16 µg/mL (≈ 12.9 µM)
Gram negative bacteria
  MIC: > 128 µg/mL
[29]
  toxic symptoms: did not exhibit toxic symptoms
